“And” between values parts separate entries of the source, which are not always exact repeats. Identical values can stand only once.
Tested on: transgenic soybean cv Jake
Experiment: Soybean greenhouse spray test, clones from T0 individuals, injury 0-9 point scale 1 week after treatment (Table 7A)
Assay type: in vivo, Glycine max
Method: Soybean cv Jake was transformed as previously described by Siminszky et al., Phytochem Rev. 5:445-458 (2006). After regeneration, transformants were transplanted to soil in small pots, placed in growth chambers (16 hr day/8 hr night; 25° C. day/23° C. night; 65% relative humidity; 130-150 microE m-2 s-1) and subsequently tested for the presence of the T-DNA via Taqman analysis. After a few weeks, healthy, transgenic positive, single copy events were transplanted to larger pots and allowed to grow in the growth chamber. An optimal shoot for cutting was about 3-4 inches tall, with at least two nodes present. Each cutting was taken from the original transformant (mother plant) and dipped into rooting hormone powder (indole-3-butyric acid, IBA). The cutting was then placed in oasis wedges inside a bio-dome. The mother plant was taken to maturity in the greenhouse and harvested for seed. Wild type cuttings were also taken simultaneously to serve as negative controls. The cuttings were kept in the bio-dome for 5-7 days and then transplanted to 3 inch pots and then acclimated in the growth chamber for two more days. […] Other herbicides, such as AHAS (ALS—Acetolactate Synthase) inhibiting herbicides were also tested in a similar fashion for confirming cross resistance to other modes of action: Tritosulfuron, Florasulam, Metsulfuron, Rimsulfuron. Herbicide injury evaluations were taken at 2, 7, 14 and 21 days after treatment.
• 0 No Injury • 1 Minimal injury, only a few patches of leaf injury or chlorosis. • 2 Minimal injury with slightly stronger chlorosis. Overall growth points remain undamaged. • 3 Slightly stronger injury on secondary leaf tissue, but primary leaf and growth points are still undamaged. • 4 Overall plant morphology is slightly different, some chlorosis and necrosis in secondary growth points and leaf tissue. Stems are intact. Regrowth is highly probable within 1 week. • 5 Overall plant morphology is clearly different, some chlorosis and necrosis on a few leaves and growth points, but primary growth point is intact. Stem tissue is still green. Regrowth is highly probably within 1 week. • 6 Strong injury can be seen on the new leaflet growth. Plant has a high probability to survive only through regrowth at different growth points. Most of the leaves are chlorotic/necrotic but stem tissue is still green. May have regrowth but with noticeable injured appearance. • 7 Most of the active growth points are necrotic. There may be a single growth point that could survive and may be partially chlorotic or green and partially necrotic. Two leaves may still be chlorotic with some green; the rest of the plant including stem is necrotic. • 8 Plant will likely die, and all growth points are necrotic. One leaf may still be chlorotic with some green. The remainder of the plant is necrotic. • 9 Plant is dead. • * Not tested

CC(C)N(C)S(=O)(=O)NC(=O)c1cc(-n2c(=O)cc(C(F)(F)F)n(C)c2=O)c(F)cc1Cl [Saflufenacil, saflufenacil]
injury (0-9 point scale) 1 week after treatment (Saflufenacil 12.5 g ai/ha, GOI AmtuPPX2L_F420L stacked with Bradi_1g07930.1_Zm): 6 and 5 and 0 (2×) and 1 (2×)
injury (0-9 point scale) 1 week after treatment (Saflufenacil 12.5 g ai/ha, GOI Bradi_1g07930.1_Zm): 4 (2×) and 1 and 6 (3×) and 0
injury (0-9 point scale) 1 week after treatment (Saflufenacil 25 g ai/ha, GOI AmtuPPX2L_F420L stacked with Bradi_1g07930.1_Zm): 6 and 0 (2×) and 2 (2×)
injury (0-9 point scale) 1 week after treatment (Saflufenacil 25 g ai/ha, GOI Bradi_1g07930.1_Zm): 6 (4×) and 5 (2×) and 1
injury (0-9 point scale) 1 week after treatment (Saflufenacil 50 g ai/ha, GOI AmtuPPX2L_F420L stacked with Bradi_1g07930.1_Zm): 5 (2×) and 6 and 1 (3×) and 2 (3×)
injury (0-9 point scale) 1 week after treatment (Saflufenacil 50 g ai/ha, GOI AmtuPPX2L_R128A_F420L stacked with Bradi_1g07930.1_Zm): 1
injury (0-9 point scale) 1 week after treatment (Saflufenacil 50 g ai/ha, GOI AmtuPPX2L_R128A_F420V stacked with Bradi_1g07930.1_Zm): 1 (4×) and 2 (2×) and 6 and 4 and 3
injury (0-9 point scale) 1 week after treatment (Saflufenacil 50 g ai/ha, GOI Bradi_1g07930.1_Zm): 6 (2×) and 5
injury (0-9 point scale) 1 week after treatment (Saflufenacil 100 g ai/ha, GOI AmtuPPX2L_F420L stacked with Bradi_1g07930.1_Zm): 3 and 6 and 2
injury (0-9 point scale) 1 week after treatment (Saflufenacil 100 g ai/ha, GOI AmtuPPX2L_R128A_F420L stacked with Bradi_1g07930.1_Zm): 0 and 3 and 1 (3×) and 2 (4×) and 6 and 4
injury (0-9 point scale) 1 week after treatment (Saflufenacil 100 g ai/ha, GOI AmtuPPX2L_R128A_F420V stacked with Bradi_1g07930.1_Zm): 3 (5×) and 0 and 1 and 7 and 2 and 5 and 4
injury (0-9 point scale) 1 week after treatment (Saflufenacil 100 g ai/ha, GOI Bradi_1g07930.1_Zm): 8 and 6
injury (0-9 point scale) 1 week after treatment (Saflufenacil 200 g ai/ha, GOI AmtuPPX2L_F420L stacked with Bradi_1g07930.1_Zm): 2 (2×) and 6
injury (0-9 point scale) 1 week after treatment (Saflufenacil 200 g ai/ha, GOI AmtuPPX2L_R128A_F420L stacked with Bradi_1g07930.1_Zm): 1 and 5 (2×) and 3 (2×) and 2 (4×) and 0 and 4
injury (0-9 point scale) 1 week after treatment (Saflufenacil 200 g ai/ha, GOI AmtuPPX2L_R128A_F420V stacked with Bradi_1g07930.1_Zm): 2 (4×) and 5 (2×) and 3 (2×) and 7 and 6 and 8

From US10968462B2, “Plants having increased tolerance to herbicides” (BASF AGRO B.V., priority 2013, dated 2021)
